Experimental data from patent publication US20230192700A1, “PYRAZOLOPYRAZINES ACTING ON CANCERS VIA INHIBITION OF CDK12” (Bayer Aktiengesellschaft, priority 2020, published 2023).

How the values were obtained:
[1] = test system: CAL-120 human breast adenocarcinoma cells; experiment: Proliferation assay CAL-120 (crystal violet); assay type: cell-based; settings: Homo sapiens, CAL-120, 96 h, CAL-120 cells, 4 days, median, read-out: Prolif-CAL-120— IC50 - [mol/l] (median)
Method: 4. Proliferation assay: MDA-MB-231, CAL-120
Human tumour cells were originally obtained from the American Type Culture Collection (ATCC), or from the Deutsche Sammlung von Mikroorganismen and Zellkulturen (DSMZ, German Collection of Microorganisms and Cell Cultures). Cultivated tumour cells (CAL-120, human breast adenocarcinoma cells, DSMZ ACC-459; MDA-M B-231, human breast cancer cells, ATCC HTB-26) were plated at a density of 4,000 cells/well in a 96-well multititer plate in 200 microL of their respective growth medium supplemented 10% fetal calf serum. After 24 hours, the cells of one plate (zero-point plate) were stained with crystal violet (see below), while the medium of the other plates was supplemented with the test substances in various concentrations (0 micromol/L, as well as in the range of 0.01-10 micromol/L; the final concentration of the solvent dimethyl sulfoxide was adjusted to 0.1%) using a Tecan HP D300 Digital Dispenser. The cells were incubated for 4 days in the presence of test substances. Cell proliferation was determined by staining the cells with crystal violet: the cells were fixed by adding 20 microL/measuring point of an 11% glutaric aldehyde solution for 15 minutes at room temperature. After three washing cycles of the fixed cells with water, the plates were dried at room temperature. The cells were stained by adding 100 microL/measuring point of a 0.1% crystal violet solution (pH 3.0). After three washing cycles of the stained cells with water, the plates were dried at room temperature. The dye was dissolved by adding 100 microL/measuring point of a 10% acetic acid solution. The extinction was determined by photometry at a wavelength of 595 nm. The change of cell number, in percent, was calculated by normalization of the measured values to the extinction values of the zero-point plate(=0%) and the extinction of the untreated (0 μM) cells(=100%). The IC50 values (inhibitory concentration at 50% of maximal effect) were determined by means of a 4 parameter fit.

CYCLIN K = target: T1, CYCLIN K (Homo sapiens, UniProt O75909); experiment: CYCLIN K nuclear protein level: immunofluorescence/high content analysis in CAL-120 cells; assay type: cell-based; settings: 24 h, nuclear CCNK staining intensity, median, read-out: CYCLIN K degradation IF, DC50- [mol/l] (median)
T1 construct: endogenous in cells; host or cells: CAL-120 human breast cancer cells (DSMZ ACC 459)
T1 sequence (O75909 whole entry): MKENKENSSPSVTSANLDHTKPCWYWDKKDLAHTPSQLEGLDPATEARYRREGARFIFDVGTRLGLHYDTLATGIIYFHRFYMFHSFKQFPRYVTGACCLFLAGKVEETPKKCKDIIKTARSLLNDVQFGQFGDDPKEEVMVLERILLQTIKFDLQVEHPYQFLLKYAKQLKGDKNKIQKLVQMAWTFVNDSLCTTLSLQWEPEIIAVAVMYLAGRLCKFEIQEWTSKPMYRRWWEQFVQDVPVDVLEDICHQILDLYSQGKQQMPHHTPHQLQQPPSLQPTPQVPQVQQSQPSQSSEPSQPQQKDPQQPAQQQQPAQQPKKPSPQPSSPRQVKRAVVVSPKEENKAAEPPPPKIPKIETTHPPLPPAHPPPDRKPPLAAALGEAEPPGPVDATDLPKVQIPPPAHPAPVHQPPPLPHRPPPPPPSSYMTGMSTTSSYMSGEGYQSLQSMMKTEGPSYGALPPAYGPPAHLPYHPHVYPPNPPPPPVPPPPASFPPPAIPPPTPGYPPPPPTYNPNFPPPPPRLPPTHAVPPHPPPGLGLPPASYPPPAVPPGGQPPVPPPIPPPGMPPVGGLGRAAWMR
T1 sequence (Q9NYV4 whole entry partner): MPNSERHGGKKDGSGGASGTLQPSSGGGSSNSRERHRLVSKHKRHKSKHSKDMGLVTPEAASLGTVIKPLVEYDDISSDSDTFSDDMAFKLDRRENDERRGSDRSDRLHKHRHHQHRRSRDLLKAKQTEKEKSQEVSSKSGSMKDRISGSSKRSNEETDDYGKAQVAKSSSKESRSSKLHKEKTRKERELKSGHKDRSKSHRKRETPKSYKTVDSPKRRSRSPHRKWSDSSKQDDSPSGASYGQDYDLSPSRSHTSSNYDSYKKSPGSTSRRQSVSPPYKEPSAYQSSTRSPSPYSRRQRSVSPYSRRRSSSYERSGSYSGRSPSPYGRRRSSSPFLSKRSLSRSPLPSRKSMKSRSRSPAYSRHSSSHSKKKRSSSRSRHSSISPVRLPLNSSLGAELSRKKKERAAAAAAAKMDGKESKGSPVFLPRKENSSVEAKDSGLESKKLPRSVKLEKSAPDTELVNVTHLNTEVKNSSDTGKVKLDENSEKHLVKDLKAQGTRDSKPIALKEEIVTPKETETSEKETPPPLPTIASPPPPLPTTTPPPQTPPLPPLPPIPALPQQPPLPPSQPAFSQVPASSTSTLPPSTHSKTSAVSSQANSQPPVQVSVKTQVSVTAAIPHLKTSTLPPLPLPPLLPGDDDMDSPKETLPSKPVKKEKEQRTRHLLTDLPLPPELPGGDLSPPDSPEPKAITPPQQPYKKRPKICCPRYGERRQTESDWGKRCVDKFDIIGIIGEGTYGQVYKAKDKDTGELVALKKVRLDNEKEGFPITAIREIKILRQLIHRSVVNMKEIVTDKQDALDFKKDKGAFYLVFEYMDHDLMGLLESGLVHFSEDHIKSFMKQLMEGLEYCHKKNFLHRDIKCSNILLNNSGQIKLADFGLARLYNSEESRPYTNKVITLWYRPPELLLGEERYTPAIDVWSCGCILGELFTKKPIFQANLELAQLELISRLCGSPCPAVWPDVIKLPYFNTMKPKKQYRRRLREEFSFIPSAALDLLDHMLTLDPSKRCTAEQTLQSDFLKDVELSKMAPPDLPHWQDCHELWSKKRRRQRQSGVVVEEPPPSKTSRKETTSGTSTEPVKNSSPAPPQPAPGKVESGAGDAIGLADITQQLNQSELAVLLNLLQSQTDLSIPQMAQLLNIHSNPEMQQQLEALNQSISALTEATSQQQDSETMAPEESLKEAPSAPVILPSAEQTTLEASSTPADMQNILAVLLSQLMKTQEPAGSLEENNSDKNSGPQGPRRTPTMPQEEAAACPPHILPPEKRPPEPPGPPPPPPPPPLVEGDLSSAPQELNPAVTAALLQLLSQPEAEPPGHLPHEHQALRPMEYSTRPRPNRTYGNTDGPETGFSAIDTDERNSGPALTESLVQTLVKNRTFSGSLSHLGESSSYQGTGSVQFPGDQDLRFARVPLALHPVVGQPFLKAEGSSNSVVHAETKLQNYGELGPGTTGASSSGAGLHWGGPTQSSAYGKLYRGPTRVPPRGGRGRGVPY
Method: 7. CYCLIN K Nuclear Protein Level: Immunofluorescence/High Content Analysis
In the context of the present invention, the term “DC50 Cyclin K” refers to the DC50 values obtained according to the assay described in this section (7) herein below, i.e. the DC50 values for the degradation of Cyclin K.
CAL-120 human breast cancer cells (DSMZ ACC 459) are seeded in 1536-well microtiter plates (800 cells per well) containing 50 nanoL of compounds in Dose-Response. Control wells received DMSO or Reference Example 1. Plates are then incubated for 24 h at 37° C. in an humidified incubator and fixed with 4% PFA for 10 min. Then immunofluorescence (IF) against CYCLIN K (ThermoFisher Scientific CCNK Antibody # PA5-85020, rabbit, 1:200 dilution) is performed using standard IF protocols. Cells are then stained with Hoechst 33342 (Life Technologies, H-1399, 0.1 microg/mL) and imaged on an automated confocal microscopy system (e.g. Perkin Elmer Opera Phenix). Nuclear and cytoplasmic intensity as well as the nuclear/cytoplasmic intensity ratio is determined by automated image analysis using custom generated scripts (MetaXpress). Data is then transferred to Genedata Screener software, normalized to DMSO and control and DC50 values (degrading concentration to achieve 50% reduction of nuclear CCNK staining intensity relative to controls) are reported.

| SMILES | IC50 [1] | DC50 (CYCLIN K) |
| --- | --- | --- |
| CN1CCC(n2nc(NCc3nc4cc(C(F)(F)F)ccc4[nH]3)c3ncc(C4CC4)nc32)CC1 [Example 25, 6-cyclopropyl-1-(1-methylpiperidin-4-yl)-N-{[5-(trifluoromethyl)-1H-benzimidazol-2-yl]methyl}-1H-pyrazolo[3,4-b]pyrazin-3-amine] | 3.14 nM | 0.543 nM |
| c1ccc2[nH]c(CNc3nn(C4C[C@H]5CC[C@@H](C4)O5)c4nc(C5CC5)cnc34)nc2c1 (stereo partly drawn) [Example 45, exo/endo-N-[(1H-benzimidazol-2-yl)methyl]-6-cyclopropyl-1-(8-oxabicyclo[3.2.1]octan-3-yl)-1H-pyrazolo[3,4-b]pyrazin-3-amine] | 9.86 nM | 2.29 nM |
| CC(C)(O)C1CC(n2nc(NCc3nc4ccccc4[nH]3)c3ncc(C4CC4)nc32)C1 (mixture of isomers) [Example 48, 2-[cis/trans-3-(3-{[(1H-benzimidazol-2-yl)methyl]amino}-6-cyclopropyl-1H-pyrazolo[3,4-b]pyrazin-1-yl)cyclobutyl]propan-2-ol] | 42.5 nM | 11.3 nM |
| OCCn1nc(NCc2nc3ccccc3[nH]2)c2ncc(C3CC3)nc21 [Example 66, 2-(3-{[(1H-benzimidazol-2-yl)methyl]amino}-6-cyclopropyl-1H-pyrazolo[3,4-b]pyrazin-1-yl)ethan-1-ol] | 160 nM | 20.3 nM |
| c1ccc2[nH]c(CNc3nn(C4CCOC4)c4nc(C5CC5)cnc34)nc2c1 (racemic) [Example 10, (±)-N-[(1H-benzimidazol-2-yl)methyl]-6-cyclopropyl-1-[oxolan-3-yl]-1H-pyrazolo[3,4-b]pyrazin-3-amine] | 65.7 nM | 159 nM |
| CC1(C)CC(n2nc(NCc3nc4ccccc4[nH]3)c3ncc(C4CC4)nc32)CC(C)(C)O1 [Example 52, N-[(1H-benzimidazol-2-yl)methyl]-6-cyclopropyl-1-(2,2,6,6-tetramethyloxan-4-yl)-1H-pyrazolo[3,4-b]pyrazin-3-amine] |  | 92.6 nM |
| O[C@H]1C[C@H](Cn2nc(NCc3nc4ccccc4[nH]3)c3ncc(C4CC4)nc32)C1 [Example 70, trans-3-[(3-{[(1H-benzimidazol-2-yl)methyl]amino}-6-cyclopropyl-1H-pyrazolo[3,4-b]pyrazin-1-yl)methyl]cyclobutan-1-ol] | 71.8 nM | 11.6 nM |
| O[C@H]1CC[C@H](n2nc(NCc3nc4ccccc4[nH]3)c3ncc(C4CC4)nc32)CC1 [Example 50, trans-4-(3-{[(1H-benzimidazol-2-yl)methyl]amino}-6-cyclopropyl-1H-pyrazolo[3,4-b]pyrazin-1-yl)cyclohexan-1-ol] | 11 nM | 3.27 nM |
| CC(C)(O)Cn1nc(NCc2nc3ccccc3[nH]2)c2ncc(C3CC3)nc21 [Example 69, 1-(3-{[(1H-benzimidazol-2-yl)methyl]amino}-6-cyclopropyl-1H-pyrazolo[3,4-b]pyrazin-1-yl)-2-methylpropan-2-ol] | 199 nM | 34.1 nM |
| c1ccc2[nH]c(CNc3nn(C4CC5(COC5)C4)c4nc(C5CC5)cnc34)nc2c1 [Example 54, N-[(1H-benzimidazol-2-yl)methyl]-6-cyclopropyl-1-(2-oxaspiro[3.3]heptan-6-yl)-1H-pyrazolo[3,4-b]pyrazin-3-amine] |  | 3.31 nM |
| O[C@H]1C[C@H](n2nc(NCc3nc4ccccc4[nH]3)c3ncc(C4CC4)nc32)C1 [Example 43, trans-3-(3-{[(1H-benzimidazol-2-yl)methyl]amino}-6-cyclopropyl-1H-pyrazolo[3,4-b]pyrazin-1-yl)cyclobutan-1-ol] | 41.9 nM | 4.79 nM |
| Cc1cnc2c(NCc3nc4ccccc4[nH]3)nn(C3CCN(C)CC3)c2n1 [Example 77, N-[(1H-benzimidazol-2-yl)methyl]-6-methyl-1-(1-methylpiperidin-4-yl)-1H-pyrazolo[3,4-b]pyrazin-3-amine] | 1040 nM | 118 nM |
| O[C@H]1CC[C@H](n2nc(NCc3nc4cc(F)ccc4[nH]3)c3ncc(C4CC4)nc32)CC1 [Example 56, trans-4-(6-cyclopropyl-3-{[(5-fluoro-1H-benzimidazol-2-yl)methyl]amino}-1H-pyrazolo[3,4-b]pyrazin-1-yl)cyclohexan-1-ol] |  | 1.28 nM |
| COc1cccc2[nH]c(CNc3nn(C4CCN(C)CC4)c4nc(C5CC5)cnc34)nc12 [Example 2, 6-cyclopropyl-N-[(4-methoxy-1H-benzimidazol-2-yl)methyl]-1-(1-methylpiperidin-4-yl)-1H-pyrazolo[3,4-b]pyrazin-3-amine] | 11 nM | 0.704 nM |
| c1ccc2[nH]c(CNc3nn(C4COC4)c4nc(C5CC5)cnc34)nc2c1 [Example 55, N-[(1H-benzimidazol-2-yl)methyl]-6-cyclopropyl-1-(oxetan-3-yl)-1H-pyrazolo[3,4-b]pyrazin-3-amine] |  | 12.5 nM |
| CC(C)(O)CCn1nc(NCc2nc3ccccc3[nH]2)c2ncc(C3CC3)nc21 [Example 76, 4-(3-{[(1H-benzimidazol-2-yl)methyl]amino}-6-cyclopropyl-1H-pyrazolo[3,4-b]pyrazin-1-yl)-2-methylbutan-2-ol] | 55.7 nM | 8.11 nM |
| Cc1ccc2[nH]c(CNc3nn(C4CCN(C)CC4)c4nc(C5CC5)cnc34)nc2c1 [Example 6, 6-cyclopropyl-N-[(5-methyl-1H-benzimidazol-2-yl)methyl]-1-(1-methylpiperidin-4-yl)-1H-pyrazolo[3,4-b]pyrazin-3-amine] |  | 0.263 nM |
| O=CO.c1ccc(-n2nc(NCc3nc4ccccc4[nH]3)c3ncc(C4CC4)nc32)cc1 [Example 13, formic acid—N-[(1H-benzimidazol-2-yl)methyl]-6-cyclopropyl-1-phenyl-1H-pyrazolo[3,4-b]pyrazin-3-amine (1/1)] |  | 3.11 nM |
| CN1CCCC(n2nc(NCc3nc4ccccc4[nH]3)c3ncc(C4CC4)nc32)CC1 (racemic) [Example 34, (±)-N-[(1H-benzimidazol-2-yl)methyl]-6-cyclopropyl-1-(1-methylazepan-4-yl)-1H-pyrazolo[3,4-b]pyrazin-3-amine] | 7.7 nM |  |
| c1ccc2[nH]c(CNc3nn(C4CCOC4)c4nc(C5CC5)cnc34)nc2c1 (single isomer, unassigned) [Example 17, (+) or (−)-N-[(1H-benzimidazol-2-yl)methyl]-6-cyclopropyl-1-(oxolan-3-yl)-1H-pyrazolo[3,4-b]pyrazin-3-amine] | 70.3 nM |  |
| O[C@H]1CC[C@@H](n2nc(NCc3nc4ccccc4[nH]3)c3ncc(C4CC4)nc32)CC1 [Example 51, cis-4-(3-{[(1H-benzimidazol-2-yl)methyl]amino}-6-cyclopropyl-1H-pyrazolo[3,4-b]pyrazin-1-yl)cyclohexan-1-ol] |  | 4.46 nM |
| CN1CCC(n2nc(NCc3nc4c(F)c(F)ccc4[nH]3)c3ncc(C4CC4)nc32)CC1 [Example 9, 6-cyclopropyl-N-[(4,5-difluoro-1H-benzimidazol-2-yl)methyl]-1-(1-methylpiperidin-4-yl)-1H-pyrazolo[3,4-b]pyrazin-3-amine] | 6.78 nM |  |
| Cc1c(F)ccc2[nH]c(CNc3nn(C4CCN(C)CC4)c4nc(C5CC5)cnc34)nc12 [Example 26, 6-cyclopropyl-N-[(5-fluoro-4-methyl-1H-benzimidazol-2-yl)methyl]-1-(1-methylpiperidin-4-yl)-1H-pyrazolo[3,4-b]pyrazin-3-amine] | 10.1 nM |  |
| COCCC(C)n1nc(NCc2nc3ccccc3[nH]2)c2ncc(C3CC3)nc21 (racemic) [Example 57, (±)-N-[(1H-benzimidazol-2-yl)methyl]-6-cyclopropyl-1-(4-methoxybutan-2-yl)-1H-pyrazolo[3,4-b]pyrazin-3-amine] | 105 nM |  |
